The compounds below were run on MCF7 (assay: Percent inhibition of estrogen receptor positive MCF-7 human breast cancer cell proliferation at 10e-7 M).
Assay type: functional

**Q.** With `COc1ccc(C2(c3ccc(OCCN(C)C)cc3)C(c3ccccc3)C2(Cl)Cl)cc1` (configuration not stated) as the compound, how does the inhibition at 0.1 µM read?
**A.** 35%

**Q.** `COc1ccc(C2(c3ccccc3)C(c3ccccc3)C2(Cl)Cl)cc1` (configuration not stated) was tested. Which inhibition at 0.1 µM did it give?
**A.** 35%

**Q.** Which inhibition at 0.1 µM does the source give for `COc1ccc(C2(c3ccc(OCc4ccccc4)cc3)C(c3ccccc3)C2(Cl)Cl)cc1` (configuration not stated) here?
**A.** 46%

**Q.** With `ClC1(Cl)C(c2ccccc2)C1c1ccccc1` (configuration not stated) as the compound, how does the inhibition at 0.1 µM read?
**A.** 60%

**Q.** For `CC/C(=C(\c1ccccc1)c1ccc(OCCN(C)C)cc1)c1ccccc1` [TAMOXIFEN], which inhibition at 0.1 µM is on record?
**A.** 52%

**Q.** With `COc1ccc(C2C(Cl)(Cl)C2(c2ccc(OC)cc2)c2ccc(OCc3ccccc3)cc2)cc1` (configuration not stated) as the compound, how does the inhibition at 0.1 µM read?
**A.** 35%

**Q.** `CN(C)CCOc1ccc(C2(c3ccccc3)C(c3ccccc3)C2(Cl)Cl)cc1` (configuration not stated) was tested. Which inhibition at 0.1 µM did it give?
**A.** 41%
